Test results reported in patent publication US9757375B2, “Compounds that inhibit human DNA ligases and methods of treating cancer” (University of Maryland, Baltimore, priority 2007, dated 2017).

Assays:
HeLa cell extract [1] = assay: Cell extract assay of short patch base excision repair (incised AP site); format: biochemical, human; conditions: 100 μmol/L (also 25 μM in the source), FIG. 4B
Protocol: (§1) Extracts were prepared from human cervical cancer HeLa cells as described previously (27, 31). For base excision repair (BER) assays, the extraction buffer contained 100 mmol/L of KCl, whereas for nonhomologous end-joining (NHEJ) assays, extraction buffer contained 400 mmol/L of KCl. Where indicated, DNA ligases were immunodepleted from the extracts as described (32) using protein A or G Sepharose beads (GE Healthcare) and anti-Lig1, anti-LigIII (GeneTex), or anti-LigIV (ABCAM) antibodies. Depletion was confirmed by immunoblotting.
A labeled 5′-flap substrate (0.1 pmol; (31)) was incubated with 20 μg of extract in the absence or presence of ligase inhibitors (100 μmol/L) at 25° C. for 5 min in ligation buffer (final volume, 50 μL). For short patch BER, a linear duplex containing a single uracil residue was preincised by treatment with uracil DNA glycosylase and APE1 (both from NEB) to generate a strand break with 3′ hydroxyl and 5′ deoxyribose phosphate termini. Reactions (50 μL) containing 0.3 pmol of the incised DNA substrate, 10 μCi of [α^32P]dTTP, and 20 μg of extract either in the absence or presence of ligase inhibitors (100 μmol/L) were incubated at 25° C. for 2 min in ligation buffer. After separation by denaturing polyacrylamide gel electrophoresis, labeled oligonucleotides were detected in the dried gel by phosphorImager analysis (Molecular Dynamics).
A natural AP site within a linear DNA molecule (FIG. 4B) is repaired primarily by short patch base excision repair that is completed by DNA ligase 111 (15). FIG. 4B, the linear DNA substrate with an incised AP site (0.3 pmol) was incubated with a cell extract (20 μg) and [a32P]dTTP in the absence (lane 1, Mock) or presence of 100 μmol/L of L189 (lane 2), L67 (lane 3), or L82 (lane 4). hLigI (lane 5, I-dp) and hLigIIIα (lane 6, III-dp) were immunodepleted from the cell extracts prior to incubation with the DNA substrate. […] After separation by denaturing gel electrophoresis, labeled fragments corresponding to a single nucleotide insertion and fully repaired product were detected by phosphorimaging (16). […]

HeLa cell extract [2] = assay: Cell extract assay of nonhomologous end-joining (1 kb cohesive-ended fragment); format: biochemical, human; conditions: 100 μmol/L (also 25 μM in the source), FIG. 4C
Protocol: as §1
To assay NHEJ (24), a 1 kb end-labeled BamHI fragment (0.1 pmol; (33)). and 20 μg of extract were incubated in ligation buffer (final volume, 20 μL), for 120 min at 25° C. either in the presence or absence of ligase inhibitors (100 μmol/L). DNA fragments were resolved by separation through a 0.8% agarose gel. Labeled DNA fragments were detected in the dried gel by phosphorImager analysis (Molecular Dynamics).
Linear DNA molecules with short complementary single strand overhangs are repaired by non-homologous end joining that is completed by DNA ligase IV (27). A HeLa extract was incubated with a labeled linear cohesive-ended 1 kb fragment with cohesive ends repair in the absence or presence of Compounds 67, 82 and 189 (25 μM).). Lane 7, DNA ligase I was immunodepleted from the extract prior to the assay. […], DNA ligase III was immunodepleted from the extract prior to the assay. […], DNA ligase IV was immunodepleted from the extract prior to the assay. After separation by native agarose gel electrophoresis, the linear DNA substrate, re-circularized substrate and dimers trimers etc of the 1 kb substrate were detected by phosphorimaging (27). […]

DNA = DNA binding by displacement of ethidium bromide from DNA; conditions: EtBr replacement assay; 192 at 0, 50, 100 μM
Protocol: Candidate ligase inhibitors identified by CADD were assayed for their ability to inhibit hLigI and T4 DNA ligase using a high-throughput, fluorescence energy transfer-based DNA joining assay (22). Duplicate reactions (30 μL) containing 10 pmol of nicked DNA substrate and either 0.25 pmol of hLigI or 10 units of T4 DNA ligase were incubated in the presence or absence of 100 μmol/L of the putative inhibitor. DNA binding by the candidate DNA ligase inhibitors was measured by displacement of ethidium bromide from DNA as previously described (30).

HCT116 cells = assay: Screen for potentiation of DNA damaging agents (MMS, camptothecin, cis-platinum, 3 aminobenzamide, ionizing radiation); format: cell-based, human; conditions: with 2 Gy ionizing radiation, tick mark only

| Compound | repair of the natural AP site (short patch base excision repair) (HeLa cell extract [1]) | joining of linear DNA molecules (non-homologous end joining) (HeLa cell extract [2]) | DNA binding of compound (effect on DNA binding by ethidium bromide) (DNA) | % growth inhibition HCT116 [2 Gy] 5-15 uM (HCT116 cells) |
| --- | --- | --- | --- | --- |
| Cc1c(Br)cc(NCC(=O)N/N=C\c2cc([N+](=O)[O-])ccc2O)cc1Br [Compound 67] | reduce repair of the natural AP site | had no effect | had no effect on DNA binding by ethidium bromide | – |
| O=c1[nH]ncc(N/N=C\c2ccc(O)c([N+](=O)[O-])c2)c1Cl [Compound 82] | has no effect | had no effect | had no effect on DNA binding by ethidium bromide | – |
| O=C(Cn1cnc([N+](=O)[O-])n1)N/N=C/c1ccc(O)cc1O [Compound 151] | – | – | – | ✓ |
| CS(=O)(=O)NNC(=O)C(=O)NNc1ccccc1 [Compound 184] | – | – | – | ✓ |
| Nc1nc(S)nc(O)c1/N=C/c1ccccc1 [Compound 189] | reduce repair of the natural AP site | reduced joining of the linear DNA molecules | had no effect on DNA binding by ethidium bromide | – |
| O=C(c1ccc(O)cc1)c1ccccc1O [Compound 200] | – | – | – | ✓ |
